Source: paper PMC6934184, “Selective DNA-PKcs inhibition extends the therapeutic index of localized radiotherapy and chemotherapy” (The Journal of Clinical Investigation, 2019)

Tests used:
[1] = system: MCF7 cells; test: clonogenic survival with 2 Gy IR, DNA repair inhibitors; type: cell-based, Human; details: 1 h before and 24 h after IR
Protocol: Cells were washed in phosphate-buffered saline (PBS), trypsinized and counted. Cells were then reseeded at a known density in drug-free medium into 10 cm dishes (100 - 10 000 cells/dish) and incubated for 8-21 days. Colonies were fixed using Carnoys fixture (75% v/v methanol, 25% v/v acetic acid, Fisher), stained with crystal violet (0.4% w/v in water), and counted using a ColCount automated colony counter (Oxford Optronics). Cell survival was calculated as a percentage of the untreated control.
Alternatively, exponentially growing MCF7 cells were exposed to a range of concentrations of the PARP inhibitor rucaparib, the ATM inhibitor KU55933, the ATR inhibitor VE-821 or NU5455 for 1 hour prior to irradiation with 2 Gy. Cells were then incubated in the continued presence of the DNA repair inhibitors for a further 24 hours prior to replating. […]

[2] = system: lung; test: radiation-induced lung fibrosis, Masson's trichrome, modified Ashcroft score; type: in vivo, C57BL/6 mice; details: 30 mg/kg oral 30 min before and 5 h after each of 4 × 5 Gy; 24 weeks
Protocol: Whole-thorax irradiation (5 Gy) was administered to female C57BL/6 mice (6–8 weeks old) on days 1, 4, 7, and 10 with vehicle or NU5455 treatment. Whole lung sections were stained with Masson’s trichrome to visualize collagen deposition and scored using the modified Ashcroft scale proposed by Hübner et al. ([55]). Further details are provided in Supplemental Methods. […]
combined with 10 Gy thorax irradiation ( n = 6 - 7/group). For whole-thorax irradiation, anaesthetized mice were placed in the supine position in a customized rig. The whole thorax was exposed to X-ray radiation generated by the Gulmay Medical RS320 irradiation system (2.034 Gy/minute). The rest of the body was protected by lead shields. […]
Tumor growth in the remaining mice was monitored by bioluminescent imaging on days 0, 4, 8 and 15 post-treatment. […] Data were analyzed using LivingImage software (PerkinElmer). […]
Tissues were fixed in 4% paraformaldehyde (PFA) and paraffin -embedded. […] One tissue section from each of 3 mice per group was examined, and the whole section (excluding necrotic areas) analyzed using ImageScope analysis software (Aperio Technologies). γH2AX and 53BP1 foci were manually counted in 200 nuclei from each tumor sample. The percentage of γH2AX and 53BP1 positive nuclei in lung epithelial cells was quantified manually in normal lung samples across 5 randomly-chosen fields of view per […]

## CN(C(=O)CN1CCOCC1)c1ccc2sc3c(-c4cccc5c(=O)cc(N6CC7CCC(C6)O7)oc45)cccc3c2c1 [NU5455]
[1]; at 1 μM
  SER (sensitization enhancement ratio), enhancement of 2 Gy IR clonogenic cell killing: 11.5 fold
[1]; at 3 μM
  SER (sensitization enhancement ratio), enhancement of 2 Gy IR clonogenic cell killing: 38 fold
[2]
  radiation-induced lung fibrosis: did not exacerbate radiation-induced lung fibrosis
